From PubChem BioAssay (NCI) come the findings set out here.

Some test systems named below: UACC-62 melanoma; LOX IMVI melanoma; KM12 colon; A549 NSCLC; HS 578T breast; SN12C renal; NCI-H522 lung; SK-MEL-2 melanoma; DMS 273 small cell lung; LXFL 529 NSCLC.
What all share (assay): NCI tumour cell line growth inhibition, 48 h

Structures are written as SMILES.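 How tested: cells in 96-well plates exposed to compound for 48 hours at five concentrations. GI50: concentration for 50% inhibition of growth. TGI: total growth inhibition.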

In the case of `COc1cc(/C=C/c2cc(/C=C/c3ccc(O)c(OC)c3)[nH]c(=O)n2)ccc1O`, the GI50 in the test on UACC-62 melanoma is 3.39 µM; in the test on LOX IMVI melanoma, 3.16 µM; in the test on KM12 colon it was 3.44 µM; in the test with A549 NSCLC it was 5.2 µM; with HS 578T breast, 1.8 µM; in the test on SN12C renal, 4.38 µM. For the same compound, the GI50 in the test with NCI-H522 lung is 2.57 µM; with SK-MEL-2 melanoma, 2.88 µM. The TGI in the test with UACC-62 melanoma was 43.2 µM; in the test on LOX IMVI melanoma, > 100 µM; with KM12 colon, 14.2 µM; in the test on A549 NSCLC it was 27.6 µM; in the test with HS 578T breast, 6.75 µM; with SN12C renal it was > 100 µM. Further, the results for the TGI with NCI-H522 lung and with SK-MEL-2 melanoma were 7.95 µM and 6.7 µM, respectively.
On to `C[C@@H](c1ccccc1)N(CC#N)C1CCC[C@H]1O` (stereo partly specified), for which the TGI with UACC-62 melanoma, in the test on LOX IMVI melanoma, in the test on KM12 colon, in the test on A549 NSCLC, in the test with SN12C renal and in the test on DMS 273 small cell lung was > 100 µM each time. Moreover, the TGI with NCI-H522 lung and in the test with SK-MEL-2 melanoma was > 100 µM in each case.
With `Cc1ccc(/C=C2\CN(Cc3cn(CCNc4ccnc5cc(Cl)ccc45)nn3)C/C(=C\c3ccc(C)cc3)C2=O)cc1`, the GI50 in the test on UACC-62 melanoma was 1.88 µM; in the test on LOX IMVI melanoma it was 1.76 µM; in the test with KM12 colon it was 1.65 µM; in the test on A549 NSCLC, 1.8 µM; in the test with HS 578T breast, 1.97 µM; in the test on SN12C renal, 1.93 µM. Moreover, the GI50 in the test with NCI-H522 lung is 1.98 µM; in the test on SK-MEL-2 melanoma, 1.99 µM. The TGI with UACC-62 melanoma is 3.43 µM; in the test on LOX IMVI melanoma it was 3.36 µM; in the test on KM12 colon, 3.28 µM; with A549 NSCLC it was 3.73 µM; in the test with HS 578T breast, 5.53 µM; with SN12C renal, 3.95 µM. Moreover, the TGI in the test on NCI-H522 lung was 3.66 µM; in the test with SK-MEL-2 melanoma it was 3.65 µM.
Regarding `Cn1c(O)c(N=NC(N)=S)c2ccccc21`, the GI50 was > 100 µM with UACC-62 melanoma; 58.5 µM in the test with LOX IMVI melanoma; 88.3 µM in the test on KM12 colon; 62.6 µM in the test on A549 NSCLC; 23.4 µM in the test on HS 578T breast; > 100 µM in the test on SN12C renal. The GI50 is 43.9 µM with NCI-H522 lung and > 100 µM with SK-MEL-2 melanoma. Moreover, the TGI with UACC-62 melanoma, with LOX IMVI melanoma, in the test with KM12 colon, in the test on A549 NSCLC, in the test on HS 578T breast and with SN12C renal was > 100 µM throughout. The TGI with NCI-H522 lung and in the test with SK-MEL-2 melanoma was > 100 µM throughout.
In the case of `N#C/C(=C\c1cccnc1)c1nc2ccccc2o1`, the GI50 in the test with UACC-62 melanoma, in the test on LOX IMVI melanoma, in the test on KM12 colon, in the test on A549 NSCLC, in the test on HS 578T breast and with SN12C renal was > 100 µM throughout. The GI50 with NCI-H522 lung and in the test on SK-MEL-2 melanoma was > 100 µM throughout. Also, the TGI in the test with UACC-62 melanoma, in the test with LOX IMVI melanoma, with KM12 colon, in the test with A549 NSCLC, with HS 578T breast and in the test on SN12C renal was > 100 µM in each case. In addition, the TGI with NCI-H522 lung and in the test on SK-MEL-2 melanoma was > 100 µM throughout.
As for `CN(C)CCNc1c2c(c(NCCN(C)C)c3c(CO)c[nH]c13)C(=O)c1ccccc1C2=O`, the GI50 is 7.64 µM in the test with UACC-62 melanoma; 1.97 µM in the test with LOX IMVI melanoma; 1.03 µM with KM12 colon; 3.41 µM in the test with A549 NSCLC; 3.36 µM in the test with HS 578T breast; 1.25 µM in the test on SN12C renal. Further, the GI50 in the test with NCI-H522 lung was 4.6 µM; with SK-MEL-2 melanoma it was 11.2 µM. For the same compound, the TGI is 21.7 µM in the test on UACC-62 melanoma; 10 µM in the test on LOX IMVI melanoma; 5.73 µM in the test with KM12 colon; > 37.6 µM in the test with A549 NSCLC; 13.6 µM in the test on HS 578T breast; 8.33 µM in the test with SN12C renal. Besides, the TGI in the test on NCI-H522 lung was 24.1 µM; in the test with SK-MEL-2 melanoma, 23.2 µM.
Turning to `CCC1(CC)C(=O)[N-]C(=O)[N-]C1=O.[Au+].[Au+].c1ccc([PH+](c2ccccc2)c2ccccc2)cc1.c1ccc([PH+](c2ccccc2)c2ccccc2)cc1`, the GI50 was 1.02 µM with UACC-62 melanoma, 0.153 µM in the test with LXFL 529 NSCLC, 2.08 µM in the test with SN12C renal and 0.119 µM in the test on NCI-H522 lung. Besides, the TGI in the test with UACC-62 melanoma is 2.2 µM; in the test with LXFL 529 NSCLC, 0.323 µM; with SN12C renal it was 4.75 µM; with NCI-H522 lung, 0.244 µM.
Regarding `CC(C)N(Cc1ccccc1)S(=O)(=O)c1n[nH]c(C(C)(C)C)n1`, the TGI in the test with UACC-62 melanoma, in the test with LOX IMVI melanoma, in the test on KM12 colon, in the test with A549 NSCLC, in the test on HS 578T breast and with SN12C renal was > 100 µM throughout. The TGI in the test with NCI-H522 lung and in the test with SK-MEL-2 melanoma was > 100 µM each time.
Consider `O=C1OC(c2ccccc2)=N/C1=C/N1CCCC1C(=O)O` (stereo unspecified), for which the TGI in the test on UACC-62 melanoma, in the test with LOX IMVI melanoma, in the test with KM12 colon, in the test with A549 NSCLC, in the test with LXFL 529 NSCLC and with DMS 273 small cell lung was > 100 µM each time. In addition, the TGI with NCI-H522 lung and with SK-MEL-2 melanoma was > 100 µM in each case.
As for `CN/N=C(\C(=O)Nc1ccc([N+](=O)[O-])cc1[N+](=O)[O-])C1NC(=O)NC1=O` (stereo unspecified), the TGI in the test with UACC-62 melanoma, in the test with LOX IMVI melanoma, in the test on KM12 colon, in the test on A549 NSCLC, with LXFL 529 NSCLC and in the test on SN12C renal was > 100 µM each time. Besides, the TGI in the test on DMS 273 small cell lung and in the test on SK-MEL-2 melanoma was > 100 µM in each case.
Regarding `O=C(Nc1ccc(-c2ccnc(Nc3ccc(N4CCOCC4)cc3)n2)cc1)C1CCCN1` (stereo unspecified), the GI50 with UACC-62 melanoma is 6.63 µM; in the test with LOX IMVI melanoma it was 2.27 µM; with KM12 colon it was 7.49 µM; in the test with A549 NSCLC, 5.66 µM; in the test with HS 578T breast it was 3 µM; in the test with SN12C renal, 4.47 µM. The GI50 in the test with NCI-H522 lung was 6.23 µM; with SK-MEL-2 melanoma, 15.2 µM. Besides, the TGI was determined as 20.8 µM in the test on UACC-62 melanoma; 13.9 µM in the test on LOX IMVI melanoma; 27.3 µM with KM12 colon; 35.3 µM in the test with A549 NSCLC; 24.8 µM in the test on HS 578T breast; 44 µM in the test on SN12C renal. The TGI in the test on NCI-H522 lung was found to be 21.1 µM; with SK-MEL-2 melanoma it was 35.8 µM.
